# Tests used:
# Experiment in all cases: relative viability (nuclei count vs DMSO), 5 days (fraction); higher = more cells survive
# [1] = compound: CC1=C(N=C(N=C1N)[C@H](CC(=O)N)NC[C@@H](C(=O)N)N)C(=O)N[C@@H]([C@H](C2=CN=CN2)OC3C(C(C(C(O3)CO)O)O)OC4C(C(C(C(O4)CO)O)OC(=O)N)O)C(=O)N[C@H](C)[C@H]([C@H](C)C(=O)N[C@@H]([C@@H](C)O)C(=O)NCCC5=NC(=CS5)C6=NC(=CS6)C(=O)NCCC[S+](C)C)O [Bleomycin] + COc1cc2c(Oc3ccc(NC(=O)C4(C(=O)Nc5ccc(F)cc5)CC4)cc3F)ccnc2cc1OCCCN1CCOCC1 [Foretinib] (partner 0.25 µM); conditions: main component drawn
# Outline: (§1)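 After 5 days of treatment, lung cancer cells in 1536-well plates were fixed and stained in a single step (final 0.05% Triton X-100, 1% formaldehyde, 1 ug/ml Hoechst) and their nuclei counted on 4× images. Treatment had been applied by pin tool the day after seeding as one drug alone or as a fixed anchor-drug dose with five library-drug doses (not always all listed) in √10 steps. Relative viability is the nuclei count of treated wells divided by that of vehicle wells, and values are medians of duplicate plates.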
# [2] = compound: COc1cc([C@@H]2c3cc4c(cc3[C@@H](O[C@@H]3O[C@@H]5CO[C@@H](C)O[C@H]5[C@H](O)[C@H]3O)[C@H]3COC(=O)[C@H]23)OCO4)cc(OC)c1O [Etoposide] + Cc1cc(Nc2cc(N3CCN(C)CC3)nc(Sc3ccc(NC(=O)C4CC4)cc3)n2)n[nH]1 [Tozasertib] (partner 0.1 µM)
# Outline: as §1
# [3] = compound: COc1cc([C@@H]2c3cc4c(cc3[C@@H](O[C@@H]3O[C@@H]5CO[C@@H](C)O[C@H]5[C@H](O)[C@H]3O)[C@H]3COC(=O)[C@H]23)OCO4)cc(OC)c1O [Etoposide] + O=C(c1cc(Cc2n[nH]c(=O)c3ccccc23)ccc1F)N1CCN(C(=O)C2CC2)CC1 [Olaparib] (partner 8 µM)
# Outline: as §1
# [4] = compound: CC1=C(N=C(N=C1N)[C@H](CC(=O)N)NC[C@@H](C(=O)N)N)C(=O)N[C@@H]([C@H](C2=CN=CN2)OC3C(C(C(C(O3)CO)O)O)OC4C(C(C(C(O4)CO)O)OC(=O)N)O)C(=O)N[C@H](C)[C@H]([C@H](C)C(=O)N[C@@H]([C@@H](C)O)C(=O)NCCC5=NC(=CS5)C6=NC(=CS6)C(=O)NCCC[S+](C)C)O [Bleomycin] + CS(=O)(=O)N1CCN(Cc2cc3nc(-c4cccc5[nH]ncc45)nc(N4CCOCC4)c3s2)CC1 [Pictilisib] (partner 1 µM); conditions: main component drawn
# Outline: as §1
Cell Line,relative viability ([1]; first compound 0.01 µM),relative viability ([1]; first compound 0.03162 µM),relative viability ([1]; first compound 0.1 µM),relative viability ([1]; first compound 0.3162 µM),relative viability ([1]; first compound 1 µM),relative viability ([2]; first compound 0.01 µM),relative viability ([2]; first compound 0.03162 µM),relative viability ([2]; first compound 0.1 µM),relative viability ([2]; first compound 0.3162 µM),relative viability ([2]; first compound 1 µM),relative viability ([3]; first compound 0.01 µM),relative viability ([3]; first compound 0.03162 µM),relative viability ([3]; first compound 0.1 µM),relative viability ([3]; first compound 0.3162 µM),relative viability ([3]; first compound 1 µM),relative viability ([4]; first compound 0.01 µM),relative viability ([4]; first compound 0.03162 µM),relative viability ([4]; first compound 0.1 µM),relative viability ([4]; first compound 0.3162 µM),relative viability ([4]; first compound 1 µM)
LU99A,0.683,0.64,0.503,0.297,0.19,0.283,0.277,0.262,0.247,0.241,0.277,0.28,0.205,0.139,0.118,0.249,0.233,0.191,0.152,0.137
NCI-H2405,0.929,1.04,0.992,0.796,0.585,0.745,0.77,0.86,0.576,0.294,0.851,0.819,0.701,0.562,0.293,0.45,0.417,0.42,0.254,0.202
NCI-H2009,0.775,1.29,1.25,0.969,0.639,0.767,0.745,0.782,0.557,0.431,0.64,0.627,0.692,0.45,0.275,0.768,0.672,0.749,0.324,0.405
HCC-15,0.869,0.913,0.752,0.33,0.227,0.386,0.348,0.367,0.23,0.122,0.699,0.613,0.629,0.266,0.162,0.685,0.693,0.627,0.199,0.219
COR-L23,0.825,0.781,0.412,0.154,0.144,0.189,0.236,0.262,0.145,0.109,0.368,0.294,0.375,0.223,0.169,0.705,0.7,0.433,0.129,0.0958
HCC-78,0.533,0.519,0.534,0.399,0.507,0.375,0.488,0.988,0.264,0.184,0.679,0.795,0.553,0.259,0.235,0.201,0.213,0.204,0.199,0.159
NCI-H838,0.617,0.368,0.274,0.201,0.204,0.348,0.295,0.307,0.211,0.24,0.757,0.782,0.64,0.31,0.2,0.414,0.28,0.18,0.156,0.202
NCI-H2126,1.17,1.26,1.23,0.903,0.491,0.739,0.854,0.632,0.63,0.254,0.882,0.938,0.658,0.585,0.336,0.498,0.471,0.501,0.391,0.365
BEN,0.626,0.582,0.587,0.379,0.329,0.463,0.503,–,0.483,0.481,0.938,1.01,–,0.936,0.672,0.573,0.57,0.54,0.389,0.435
LCLC-103H,0.683,0.765,0.677,0.382,0.343,0.427,0.574,0.459,0.526,0.35,0.786,0.803,0.77,0.665,0.383,0.638,0.573,0.54,0.34,0.255
EKVX,0.707,0.889,0.423,0.335,0.314,0.412,0.355,0.312,0.326,0.221,0.832,0.955,0.658,0.647,0.293,0.422,0.39,0.376,0.212,0.189
LXF-289,0.933,0.888,0.804,0.36,0.14,0.209,0.166,0.196,0.111,0.0978,1.1,1.07,0.954,0.234,0.1,0.713,0.799,0.685,0.358,0.15
ABC-1,0.773,0.9,0.579,0.346,0.24,0.176,0.202,0.186,0.199,0.195,0.79,0.873,0.663,0.607,0.443,0.68,0.689,0.719,0.333,0.286
NCI-H661,0.896,0.924,0.689,0.393,0.357,0.342,0.374,0.332,0.323,0.353,0.776,0.819,0.686,0.463,0.471,0.523,0.387,0.263,0.25,0.245
NCI-H1650,0.718,0.393,0.254,0.188,0.181,0.381,0.356,0.337,0.197,0.208,0.797,0.652,0.723,0.341,0.198,0.408,0.318,0.255,0.139,0.125
NCI-H2085,1.03,0.845,0.692,0.461,0.396,0.783,0.772,0.762,0.727,0.478,0.755,0.731,0.746,0.375,0.3,0.427,0.386,0.364,0.29,0.293
NCI-H1793,0.717,0.724,0.734,0.269,0.218,0.324,0.311,–,0.316,0.185,–,0.861,0.608,0.454,0.295,0.398,0.314,0.312,0.233,0.169
LC-2-ad,0.754,0.729,0.483,0.264,0.281,0.39,0.441,0.327,0.339,0.285,0.349,0.692,0.771,0.412,0.274,0.255,0.368,0.292,0.173,0.106
COR-L 105,0.895,1,0.952,0.761,0.498,0.385,0.345,0.291,0.353,0.366,0.719,0.859,0.701,0.572,0.654,0.412,0.43,0.406,0.278,0.276
NCI-H1355,0.931,0.971,0.937,0.52,0.348,0.515,0.536,0.433,0.313,0.228,0.682,0.769,0.574,0.332,0.221,0.425,0.458,0.358,0.214,0.214
H3255,0.705,0.813,0.699,0.553,0.432,0.631,0.605,0.577,0.238,0.249,0.524,0.571,0.588,0.379,0.286,0.442,0.414,0.431,0.287,0.276
NCI-H1993,0.809,0.667,0.796,0.644,0.479,0.634,0.506,0.576,0.495,0.55,–,0.884,0.777,0.658,0.54,0.647,0.807,0.794,0.681,0.688
NCI-H1734,0.773,0.564,0.631,0.344,0.228,0.269,0.254,0.279,0.273,0.24,0.285,0.607,0.589,0.373,0.263,0.382,0.411,0.357,0.267,0.22
HOP-62,0.596,0.458,0.39,0.193,0.127,0.388,0.386,0.366,0.279,0.203,0.48,0.478,0.557,0.197,0.215,0.427,0.31,0.389,0.115,0.103
LOU-NH91,0.781,0.663,0.649,0.4,0.309,0.713,0.673,0.566,0.554,0.341,0.893,0.905,0.824,0.651,0.383,0.53,0.493,0.432,0.392,0.325
ChaGo-K-1,0.831,0.75,0.754,0.507,0.444,0.192,0.212,0.211,0.181,0.187,0.399,0.44,0.332,0.219,0.179,–,0.728,0.655,0.406,0.217
NCI-H23,0.699,0.586,0.408,0.247,0.218,0.344,0.333,0.29,0.201,0.163,0.263,0.283,0.295,0.174,0.166,0.262,0.348,0.263,0.169,0.153

# Source: the supplement of paper PMC10307832
